Where two headings read alike, the source gives them in different places.
Biological target: T1, CviR (LuxR homologue) (Chromobacterium violaceum, UniProt D3W065)
T1 construct: CviR ORF in pET28a, SUMO + His-tag fusion, E. coli BL21 (DE3), Ni-Sepharose, eluted by ULP proteinase digestion; RED-NHS labelled
Assay: microscale thermophoresis (RED-NHS labelled CviR)
Format: binding

[1] = 50 mM Tris-HCl, 150 mM NaCl, 10 mM MgCl2, 0.05% Tween-20, labelled protein, stated 20 μM CviR

T1 sequence (D3W065 1-265): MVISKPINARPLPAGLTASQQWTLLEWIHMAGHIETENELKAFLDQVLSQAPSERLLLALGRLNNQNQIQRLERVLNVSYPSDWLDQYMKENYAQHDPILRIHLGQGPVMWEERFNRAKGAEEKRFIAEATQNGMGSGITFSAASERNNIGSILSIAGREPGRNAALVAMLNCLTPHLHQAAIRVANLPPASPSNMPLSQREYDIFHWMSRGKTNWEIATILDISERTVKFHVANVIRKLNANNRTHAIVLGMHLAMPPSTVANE

SMILES	Kd [1]	Kd [nM]
O=C(/C=C/c1ccc(O)c(O)c1)c1ccc(O)cc1O [BN1, Butein]	MST results suggested that all the QSIs except C7X have significant binding ability	
CC(C)=CCc1cc2c(cc1O)O[C@H](c1ccc(O)cc1)CC2=O [BN2, Bavachin]		45.1 ± 1.9
Oc1ccc2c(c1)OC[C@](O)(Cc1ccc(O)c(O)c1)[C@H]2O [SPL, Sappanol]	MST results suggested that all the QSIs except C7X have significant binding ability	

From PMC6132053, “Virtual Screening and Biomolecular Interactions of CviR-Based Quorum Sensing Inhibitors Against Chromobacterium violaceum” (Frontiers in Cellular and Infection Microbiology, 2018)
